From patent US8101616B2, “Pyridine and pyrimidine derivatives as inhibitors of histone deacetylase” (Janssen Pharmaceutica N.V., priority 2006, dated 2012)
Converted amounts (≈) assume the structure as drawn. Where two headings read alike, the source gives them in different places.

Legend:
[1] = test system: A2780 ovarian carcinoma cells; test: Antiproliferative activity on A2780 cells, MTT (C.2); format: cell-based; settings: Homo sapiens, 96 h, four days of incubation, read-out: Cellular activity pIC50 C.2 (converted)
Experimental: Cellular activity of the compounds of formula (I) was determined on A2780 tumour cells using a […] assay for cell toxicity or survival (Mosmann Tim, Journal of Immunological Methods 65: 55-63, 1983) (see example C.2).
All compounds tested were dissolved in DMSO and further dilutions were made in culture medium. Final DMSO concentrations never exceeded 0.1% (v/v) in cell proliferation assays. Controls contained A2780 cells and DMSO without compound and blanks contained DMSO but no cells. MTT was dissolved at 5 mg/ml in PBS. A glycine buffer comprised of 0.1 M glycine and 0.1 M NaCl buffered to pH 10.5 with NaOH (1 N) was prepared (all reagents were from Merck).
The human A2780 ovarian carcinoma cells (a kind gift from Dr. T. C. Hamilton [Fox Chase Cancer Centre, Pennsylvania, USA]) were cultured in RPMI 1640 medium supplemented with 2 mM L-glutamine, 50 μg/ml gentamicin and 10% fetal calf serum. Cells were routinely kept as monolayer cultures at 37° C. in a humidified 5% CO2 atmosphere. Cells were passaged once a week using a trypsin/EDTA solution at a split ratio of 1:40. All media and supplements were obtained from Life Technologies. Cells were free of mycoplasma contamination as determined using the Gen-Probe Mycoplasma Tissue Culture kit (supplier: BioMérieux).
Cells were seeded in NUNC™ 96-well culture plates (Supplier: Life Technologies) and allowed to adhere to the plastic overnight. Densities used for plating were 1500 cells per well in a total volume of 200 μl medium. After cell adhesion to the plates, medium was changed and drugs and/or solvents were added to a final volume of 200 μl. Following four days of incubation, medium was replaced by 200 μl fresh medium and cell density and viability was assessed using an MTT-based assay. […] For each sample, the mean value for cell growth (in absorbance units) was expressed as a percentage of the mean value for cell growth of the control. […] Herein the effects of test compounds are expressed as pIC50 (the negative log value of the IC50-value) (see Table F-2).

[2] = target: histone deacetylase (HeLa nuclear extracts); test: In vitro assay for inhibition of histone deacetylase with fluorescent-labelled substrate (C.1); format: biochemical; settings: Fluor de Lys substrate
Excerpt: The in vitro assay for inhibition of histone deacetylase (see example C.1) measures the inhibition of HDAC enzymatic activity obtained with the compounds of formula (I).
The HDAC Fluorescent Activity Assay/Drug Discovery Kit of Biomol (cat. No: AK-500-0001) was used. The HDAC Fluorescent Activity Assay is based on the Fluor de Lys (Fluorogenic Histone deAcetylase Lysyl) substrate and developer combination. The Fluor de Lys substrate, comprises an acetylated lysine side chain. Deacetylation of the substrate sensitizes the substrate so that, in the second step, treatment with the Fluor de Lys developer produces a fluorophore.
HeLa nuclear extracts (supplier: Biomol) were incubated at 60 μg/ml with 75 μM of substrate. The Fluor de Lys substrate was added in a buffer containing 25 mM Tris, 137 mM NaCl, 2.7 mM KCl and 1 mM MgCl2.6H2O at pH 7.4. After 30 min, 1 volume of the developer was added. The fluorophore was excited with 355 nm light and the emitted light (450 nm) was be detected on a fluorometric plate reader.
For each experiment, controls (containing HeLa nuclear extract and buffer), a blank incubation (containing buffer but no HeLa nuclear extract) and samples (containing compound dissolved in DMSO and further diluted in buffer and HeLa nuclear extract) were run in parallel. In first instance, compounds were tested at a concentration of 10^−5M. […] All sample were tested 4 times. In each test the blank value was substracted from both the control and the sample values. The control sample represented 100% of substrate deactylation. For each sample the fluorescence was expressed as a percentage of the mean value of the controls. […] Herein the effects of test compounds are expressed as pIC50 (the negative log value of the IC50-value) (see Table F-2).

[3] = Solubility at pH 2.3, chemiluminescent nitrogen detector (C.3.b); format: physicochemical
Experimental: The solubility of a compound measures the ability of a compound to stay in solution. In the first method, the ability of a compound to stay in aqueous solution upon dilution (see example C.3.a) is measured. DMSO-stock solutions are diluted with a single aqueous buffer solvent in different consecutive steps. In this method (C.3.a), mixtures are then scanned in the BD Gentest Solubility Scanner for the occurrence of precipitation. In a second method the solubility of a compound at different pH's can be measured with the use of a chemiluminescent nitrogen detector (see example C.3.b).
The solubility of a compound, at pH 2.3, can also be measured with the use of a chemiluminescent nitrogen detector (see Table F-2).

| SMILES | % metabolism (human, 15 min, 5 μM) | IC50 [1] | Enzymatic activity pIC50 C.1 [2] | solubility [3] | % metabolism (15 min incubation with active microsomes, reference compounds) |
| --- | --- | --- | --- | --- | --- |
| COc1cc(N)c(Cl)cc1C(=O)NC1CCN(CCCOc2ccc(F)cc2)CC1OC (stereo not drawn) [Cisapride] | 45% |  |  |  |  |
| COCC(/C=C/c1ccc(F)cc1)N1CCN(c2ccc(C(=O)Nc3ccccc3N)cn2)CC1 (stereo not drawn) [Compound 1] |  | 2510 nM | <6 |  |  |
| Nc1ccccc1NC(=O)c1cnc(N2CCN(C(/C=C/c3cccc(F)c3)CO)CC2)nc1 (stereo not drawn) [Compound 2] |  | 251 nM | <6 |  |  |
| Nc1ccccc1NC(=O)c1cnc(N2CCN(C(/C=C/c3ccccc3)CO)CC2)nc1 (stereo not drawn) [Compound 3] |  | 200 nM | 4.8 | 3700 µg/mL (≈ 8.32 mM) |  |
| CCCO [propanol] |  |  |  |  | 25% |
